From patent publication US20260144796A1, “Compounds and Methods for Improving Health” (Acurx Pharmaceuticals, Inc., priority 2022, published 2026)
In brackets after ≈: the same amount, converted by molar mass. Where two headings read alike, the source gives them in different places.

Legend:
Assay type in all cases: cell-based
[1] = test system: C. difficile toxin A and B; test: Toxin production by ELISA; details: for reduction of toxin levels (toxin A and B), normalized to controls: sub-inhibitory concentrations, 24 h
Protocol: Toxin production was assessed by ELISA (tgcBiomics) according to the manufacturer instructions.

Coprococcus sp = test: MIC determination, stool Firmicute isolates; details: N=1
[2] = test system: Paeniclostridium sordellii; test: MIC determination, stool Firmicute isolates; details: Paraclostridium sordellii
[3] = test system: representative Actinobacteria (Bifidobacteriaceae and Coriobacteriaceae); test: MIC, isolated gut microbiota species: Actinobacteria; details: inactive
Protocol: Strains plated onto blood agar (Hardy Diagnostics) with a 24-hour incubation at 37° C. in an anaerobic environment (Coy vinyl anaerobic chamber). After incubation, 3-5 well-isolated colonies were suspended into 5 mL of BHI broth (Criterion Media). The cultures were incubated in an anaerobic chamber for 24 hours to achieve a 0.5 McFarland Standard. […] Plates were allowed to dry in a sterile location. After drying, the plates were covered with foil to prevent any photo-damage to the hemin and placed in the anaerobic chamber for 1 hour to reduce the media. The broth culture was then spotted onto the plates and covered with foil. Plates were allowed to dry completely before inverting them for incubation for 48 hours. Plates were analyzed and MIC recorded.

Clostridioides difficile = test: MIC determination, C. difficile strains
Excerpt: (§1) Fecal samples homogenized in reduced PBS (0.1 g stool/ml PBS) and serially diluted and plated directly onto YCFA7 agar supplemented with 0.002 g/ml each of glucose, maltose and cellobiose in large (13.5 cm diameter) petri dishes. Isolated colonies were identified by PCR amplification of the full-length 16S rRNA gene (using 7F (5′-[…]-3′) forward primer and 1510R (5′-[…]-3′) reverse primer followed by Sanger sequencing. Full-length 16S rRNA gene sequence reads were aligned using CLC Genomics (Qiagen) using the Ribosomal Database Project (RDP) as reference to classify reads to Operational Taxonomic Units (OTUs). The full-length 16S rRNA gene sequence of each species-level OTU was compared to the Ribosomal Database Project (RDP) reference database to assign taxonomic designations to the genus level and a BLAST search performed to identify any candidate novel species.
(§2) Strains plated onto blood agar (Hardy Diagnostics) with a 24-hour incubation at 37° C. in an anaerobic environment (Coy vinyl anaerobic chamber). After incubation, 3-5 well-isolated colonies were suspended into 5 mL of BHI broth (Criterion Media). The cultures were incubated in an anaerobic chamber for 24 hours to achieve a 0.5 McFarland Standard. Brucella agar with 5% hemin (5 ug/mL) (Sigma), vitamin K (10 ug/mL), and defibrinated sheep blood (Northeast Lab Services). The supplemented brucella agar was then utilized for two-fold serial dilution to create plates with IBZ concentration of 0.5 to 16 μg/mL plates. Plates were allowed to dry in a sterile location. After drying, the plates were covered with foil to prevent any photo-damage to the hemin and placed in the anaerobic chamber for 1 hour to reduce the media. The broth culture was then spotted onto the plates and covered with foil. Plates were allowed to dry completely before inverting them for incubation for 48 hours. Plates were analyzed and MIC recorded.

Longibaculum sp. = test: MIC determination, stool Firmicute isolates; details: N=1
Blautia sp. = test: MIC determination, stool Firmicute isolates; details: N=1
Excerpt: as §1, §2

Enterococcus avium = test: MIC determination, stool Firmicute isolates
Excerpt: as §1, §2

Enterococcus mundtii = test: MIC determination, stool Firmicute isolates; details: N=1
Excerpt: as §1, §2

[4] = test system: C. difficile biofilms (strains R20291, CD 630); test: C. difficile in vitro biofilm studies (MIC, MBIC, CFU/mL, Crystal Violet biomass)
Protocol: A basic flow chart outlining the experimental procedure used in these studies may be seen in FIG. 14. Briefly, C. difficile laboratory strain R20291 was grown in Brain heart infusion-supplemented (BHIS) medium. […] Biofilm formation was established via anaerobic incubation of the cultures at 37° C. for 24 hrs. Early biofilm formation was established at 4 hrs, whereas late biofilm formation was established at 24 hrs, 48 hrs, and 72 hrs. Following biofilm formation, the BHIS medium was removed and replaced with fresh media comprising no antibiotic (control), ibezapolstat (IBZ), Fidaxomicin (FDX), or metronidazole (MTZ). The cultures were then anaerobically incubated for 24 hrs or subjected to time course tests. Biofilm biomass was measured using Crystal Violet staining. […] Data was measured and recorded using Cytation 3 calibrated to read at A570. Data was analyzed by comparing percent growth of antibiotic treated cultures with controls.

Enterococcus faecalis = test: MIC determination, stool Firmicute isolates

**Q.** What does the source list for `O=c1[nH]c(NCc2ccc(Cl)c(Cl)c2)nc2ncn(CCN3CCOCC3)c12` [Ibezapolstat, 2-((3,4-dichlorobenzyl)amino)-7-(2-morpholinoethyl)-1,7-dihydro-6H-purin-6-one]?
**A.** total toxin A and B production ([1]; strain CD 630, 24 hours of treatment): decreases total toxin A and B production in strain CD 630 in a dose-dependent manner; reduction of toxin levels (toxin A and B), normalized to controls ([1]; strain CD 630): 55%; reduction of toxin levels (toxin A and B), normalized to controls ([1]; strain R20291): 60%; MIC50 (Coprococcus sp): 25 µg/mL (≈ 59.1 µM); MIC ([2]; read-out: MIC Max): 12.5 µg/mL (≈ 29.5 µM); MIC50 ([2]; Paeniclostridium sordellii, N=4): 1.5 µg/mL (≈ 3.54 µM); MIC ([2]; Paeniclostridium sordellii, N=4, read-out: MIC Min): 0.75 µg/mL (≈ 1.77 µM); MIC [3]: > 64 µg/mL; MIC50 (Clostridioides difficile; Clostridioides difficile, N=6): 0.5 µg/mL (≈ 1.18 µM); MIC (Clostridioides difficile; Clostridioides difficile, N=6, read-out: MIC Max): 1 µg/mL (≈ 2.36 µM); MIC (Clostridioides difficile; Clostridioides difficile, N=6, read-out: MIC Min): 0.25 µg/mL (≈ 0.591 µM); MIC (Clostridioides difficile; Clostridioides difficile, strains of C. difficile, highly active): ≤ 2 µg/mL; MIC (Clostridioides difficile; strains of C. difficile, highly active): < 2 µg/mL; MIC50 (Longibaculum sp.): 50 µg/mL (≈ 118 µM); MIC50 (Blautia sp.): 12.5 µg/mL (≈ 29.5 µM); MIC50 (Enterococcus avium; N=2): 12.5 µg/mL (≈ 29.5 µM); MIC (Enterococcus avium; N=2, read-out: MIC Max): 12.5 µg/mL (≈ 29.5 µM); MIC (Enterococcus avium; N=2, read-out: MIC Min): 12.5 µg/mL (≈ 29.5 µM); MIC50 (Enterococcus mundtii): 12.5 µg/mL (≈ 29.5 µM); C. diff growth (CFU/mL) and biomass at sub-MIC compared to control ([4]; 0.4× MIC): reduced; growth in early biofilms at supra-MIC ([4]; 40× MIC, after 48 hours of treatment): eradicated growth; MBIC ([4]; C. diff. strain R20291, Minimum Biofilm Inhibitory Concentration): 4 µg/mL; MIC ([4]; Clostridioides difficile, C. diff. strain R20291, read-out: MIC): 4 µg/mL (≈ 9.45 µM); MIC50 (Enterococcus faecalis): 12.5 µg/mL (≈ 29.5 µM); MIC (Enterococcus faecalis; N=5, read-out: MIC Max): 50 µg/mL (≈ 118 µM); MIC (Enterococcus faecalis; read-out: MIC Min): 12.5 µg/mL (≈ 29.5 µM)
